Source: patent US5462936A, “Benzothiazepine derivatives” (Shionogi & Co., Ltd., priority 1991, dated 1995)

What was measured:
Calcium Channel = Calcium Channel (Oryctolagus cuniculus, UniProt P15381); test: Calcium channel antagonism: relaxing action on extracted blood vessel (rabbit femoral artery, contracture by 50 mM KCl); conditions: 50 mM KCl contracture, 50% of maximum relaxing (0.1 mM papaverine)
Experimental: (§1) Calcium Channel Antagonism and […] Action (Relaxing Action on Extracted Blood Vessel)
(§2) Male rabbits weighing 2-3 kg (Rabiton, Japanese albino species) were anesthetized through intravenous administration of pentobarbital (50 mg/kg), and sacrificed by bloodletting through dissection of axillary artery. Femoral artery was extracted, connective tissue surrounding the artery was removed, and helical specimen was prepared. The specimen was suspended in an organ bath (20 cc) filled with 37° C. Krebs-Henseleit nutritious solution and bubbled with a 95% O2 +5% CO2 mixed gas. 1.5 g of resting tension was loaded on femoral artery. Isometric change of the tension of the specimen was recorded on a thermal recorder (Nippon Koden WT-685G) via F-D pickup Nippon Koden (TB611T) and Preamp (Nippon Koden). Ca-antagonism of a test compound was evaluated by observing relaxing action due to accumulative addition of the compound on the contracture caused by the application of 50 mM KCl. α-Blocking action was similarly evaluated by observing such relaxing action on the contracture caused by the application of 1 μM norepinephrine (NE). […] The concentration of a given compound, which is necessary for giving 50% of the maximum relaxing (IC50), was determined using the above system.

femoral artery = test: α-Blocking action: relaxing action on extracted blood vessel (rabbit femoral artery, contracture by 1 μM norepinephrine); conditions: Oryctolagus cuniculus, 1 μM norepinephrine contracture, 50% of maximum relaxing (0.1 mM papaverine), read-out: Relaxing action on Blood Vessel IC50, 1 μM-NE
Experimental: as §1, §2

cultured cardiac cells = test: Anti-hypoxia action on cultured cardiac cells (inhibition of CPK leakage); assay type: cell-based, rat (newborn Crj-SD); conditions: Rattus norvegicus, read-out: Anti-hypoxia Activity (%), rate of inhibition on CPK leakage
Experimental: Anti-hypoxia action of the compounds of the present invention were investigated through studying their action in connection with the protection of cardiomuscular cells.
Primary culture of cardiac cells was prepared from newborn Crj-SD rats (2-3 day old) and used in the experiment. The primary culture was prepared according to the method described by Jones R. L. et al., Am. J. Pathol., 135, 541-556, 1989. Thus, cardiac cells were isolated from ventricle muscle using collagenase and pancreatin, and then the cardiac cells were separated and purified from cell debris, erythrocytes, and fibroblasts by means of Percoll density-gradient centrifugation. The cells were spread on a culture plate at a ratio of 2-3×10^5 cells/3.5 cm plate, and the cells were cultured for two days in Dulbecco's Modified Eagle's Medium (DMEM) containing 10% Fetal Bovine Serum (FBS) in an incubator (5% CO2 /95% Air) kept at 37° C. After sufficient growth of the cardiac cells, the culture medium was changed to DMEM free from FBS, and the culture was continued additional one day. The cells thus obtained were used in the experiment.
Hypoxia was generated using Gas Pak™ Anaerobic Chamber (BBL) which produces hypoxia by capturing residual O2 and changing it into H2 0 by the action of a H2 /CO2 generating bag and catalyst. The cardiac cell plate, wherein the culture medium had been changed to DMEM which is free from FBS and glucose, was set in the chamber, and the chamber was placed in an incubator. Anti-hypoxia activity of test compounds was determined by measuring inhibition rate of leakage of creatine phosphokinase activity into the culture medium.
The compounds tested were all dissolved in DMSO using HCO-50 as a solubilizing agent (DMSO:HCO-50=9:1), and directly charged onto the culture plate. The final concentrations of DMSO and HCO-50 in the culture medium were adjusted to 0.09% and 0.01% respectively. CPK activity was measured by colorimetry (Wako Kit) modified from Oliver method.
The numerical values in the table show cardiac cells-protecting activity of test compounds in terms of the rate (%) of inhibition on CPK leakage determined in connection with the test compounds when the amount of the CPK leakage for negative control (no addition of the test compounds) was defined as 100%.

[1] = test system: spontaneous hypertensive rats (SHR); test: Action on blood pressure and heart rate of not-anesthetized SHR; assay type: in vivo, rat (SHR); conditions: 2 and 4 hours after administration; for Antihypertensive action (%): decrease in SBP
Experimental: Action of the compounds of the invention on blood pressure and heart rate of not-anesthetized spontaneous hypertensive rats (SHR)
Male Japanese Charles-River SHR (13-17 week old) were used in the experiment (S. Matsuda, J. Pharmacol. Method, 17 361, 1987). Systolic blood pressure (SBP) and heart rate of the animals were measured non-invasively (indirectly) using hemadynamometer for caudal artery pressure (6 channel type) before the administration of test compounds, at 2 and 4 hours after administration. Test compounds were dissolved in DMSO (100%) and orally administered. Decreased values in SBP and heart rate determined 2 and 4 hours after administration when compared with those determined before administration are shown in percentage (%) in the following table.

[2] = test system: cardiac muscle damage due to ischemia; test: Anti-necrosis activity (left coronary ligation and reperfusion, CPK retention in left ventricle); assay type: in vivo, rat (Wistar); conditions: Rattus norvegicus; for inhibition in vivo at 0.3 mg/kg: 0.3 mg/kg iv; for inhibition in vivo at 1 mg/kg: 1 mg/kg iv
Experimental: Male Sic Wistar rats weighing 200-250 g were anesthetized with urethane (1 g/kg), and ramus descendens of the left coronaria was ligated for 20 minutes and then reperfused according to the method described by Hock et al (Hock, […]., Am. Heart J., 109 222, 1985). […] For three hours after the reperfusion, the rats were subjected to heat insulation on a warming mat. After 120 minutes, the hearts were extracted, and the free walls of the left ventricles were frozen and storred until determination of CPK activity. CPK activity was determined according to the method of Bernauer, W. (Arch. int. Pharmacodyn., 231 90, 1978) after minor modification. Thus, the extracted tissue was homogenized in 10 volumes of 0.1M Tris/HCl (pH 7.5) containing 1 mM mercaptoethanol and centrifuged at 20,000 g for 20 minutes. The supernatant was used for determination of CPK activity, which was conducted using a commercially available kit (CPK-Test, Wako). CPK was determined using serum CPK as a standard and expressed with "U/mg protein". […] The degree of the inhibition was measured in terms of the CPK activity retained in the left ventricle. The test results are shown in Table 7, wherein percentage of the retention (%) at each dose was calculated based on the following equation.

Sequence of Calcium Channel (P15381 whole entry): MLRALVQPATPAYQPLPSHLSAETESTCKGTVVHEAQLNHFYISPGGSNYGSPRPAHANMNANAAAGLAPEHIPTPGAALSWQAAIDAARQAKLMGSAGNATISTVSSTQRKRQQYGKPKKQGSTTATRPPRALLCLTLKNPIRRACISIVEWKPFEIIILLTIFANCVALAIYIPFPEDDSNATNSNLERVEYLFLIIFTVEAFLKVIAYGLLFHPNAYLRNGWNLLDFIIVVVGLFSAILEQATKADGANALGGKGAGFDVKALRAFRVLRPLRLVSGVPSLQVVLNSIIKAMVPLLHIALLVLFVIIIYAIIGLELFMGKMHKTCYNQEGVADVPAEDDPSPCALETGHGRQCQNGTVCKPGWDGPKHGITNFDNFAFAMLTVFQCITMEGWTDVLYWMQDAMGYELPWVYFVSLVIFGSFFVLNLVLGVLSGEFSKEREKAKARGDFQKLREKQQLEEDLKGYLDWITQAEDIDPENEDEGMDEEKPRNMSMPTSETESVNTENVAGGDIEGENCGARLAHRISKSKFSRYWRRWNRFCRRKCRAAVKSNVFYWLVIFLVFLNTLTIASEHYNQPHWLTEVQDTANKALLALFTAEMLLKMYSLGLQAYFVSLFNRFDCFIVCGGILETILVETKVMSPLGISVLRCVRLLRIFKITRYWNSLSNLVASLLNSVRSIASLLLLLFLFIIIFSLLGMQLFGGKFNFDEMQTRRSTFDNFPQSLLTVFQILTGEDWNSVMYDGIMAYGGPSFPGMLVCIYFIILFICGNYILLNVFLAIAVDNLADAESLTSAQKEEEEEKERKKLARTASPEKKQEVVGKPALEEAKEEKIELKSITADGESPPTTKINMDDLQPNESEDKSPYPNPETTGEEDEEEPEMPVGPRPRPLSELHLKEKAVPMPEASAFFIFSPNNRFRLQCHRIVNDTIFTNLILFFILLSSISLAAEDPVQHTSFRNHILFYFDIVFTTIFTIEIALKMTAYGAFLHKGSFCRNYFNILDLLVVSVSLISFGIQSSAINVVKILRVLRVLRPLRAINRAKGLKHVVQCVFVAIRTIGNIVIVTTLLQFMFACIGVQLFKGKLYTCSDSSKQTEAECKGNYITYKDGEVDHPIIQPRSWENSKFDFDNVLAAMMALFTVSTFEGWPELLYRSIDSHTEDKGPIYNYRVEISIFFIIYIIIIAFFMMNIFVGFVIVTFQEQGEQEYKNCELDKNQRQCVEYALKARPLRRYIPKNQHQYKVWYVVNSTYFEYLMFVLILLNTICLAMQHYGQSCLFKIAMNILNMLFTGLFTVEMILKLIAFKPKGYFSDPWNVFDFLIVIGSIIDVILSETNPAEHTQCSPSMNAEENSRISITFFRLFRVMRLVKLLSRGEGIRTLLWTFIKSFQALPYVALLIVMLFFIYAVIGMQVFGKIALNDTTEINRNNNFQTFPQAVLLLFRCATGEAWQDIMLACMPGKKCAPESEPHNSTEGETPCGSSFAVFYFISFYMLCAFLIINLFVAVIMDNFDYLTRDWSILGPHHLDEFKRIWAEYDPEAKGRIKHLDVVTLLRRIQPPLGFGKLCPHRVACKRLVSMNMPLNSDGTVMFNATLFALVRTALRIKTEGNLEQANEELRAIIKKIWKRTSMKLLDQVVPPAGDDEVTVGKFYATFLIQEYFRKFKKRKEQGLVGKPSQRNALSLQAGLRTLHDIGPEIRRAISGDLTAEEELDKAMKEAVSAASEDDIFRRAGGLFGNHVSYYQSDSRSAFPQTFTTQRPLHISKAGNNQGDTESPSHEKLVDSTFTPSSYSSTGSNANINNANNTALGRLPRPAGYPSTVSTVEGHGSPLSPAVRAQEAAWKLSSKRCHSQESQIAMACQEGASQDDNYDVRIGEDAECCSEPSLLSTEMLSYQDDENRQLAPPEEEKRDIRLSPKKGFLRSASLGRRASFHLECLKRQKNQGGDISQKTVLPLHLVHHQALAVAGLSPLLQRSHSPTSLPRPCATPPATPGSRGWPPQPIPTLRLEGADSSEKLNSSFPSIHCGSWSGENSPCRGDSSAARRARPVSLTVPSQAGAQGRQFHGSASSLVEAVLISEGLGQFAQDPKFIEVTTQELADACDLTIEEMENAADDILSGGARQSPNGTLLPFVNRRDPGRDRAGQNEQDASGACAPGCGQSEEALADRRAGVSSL
Sequence of Calcium Channel (P13806 27-960 partner limits assumed): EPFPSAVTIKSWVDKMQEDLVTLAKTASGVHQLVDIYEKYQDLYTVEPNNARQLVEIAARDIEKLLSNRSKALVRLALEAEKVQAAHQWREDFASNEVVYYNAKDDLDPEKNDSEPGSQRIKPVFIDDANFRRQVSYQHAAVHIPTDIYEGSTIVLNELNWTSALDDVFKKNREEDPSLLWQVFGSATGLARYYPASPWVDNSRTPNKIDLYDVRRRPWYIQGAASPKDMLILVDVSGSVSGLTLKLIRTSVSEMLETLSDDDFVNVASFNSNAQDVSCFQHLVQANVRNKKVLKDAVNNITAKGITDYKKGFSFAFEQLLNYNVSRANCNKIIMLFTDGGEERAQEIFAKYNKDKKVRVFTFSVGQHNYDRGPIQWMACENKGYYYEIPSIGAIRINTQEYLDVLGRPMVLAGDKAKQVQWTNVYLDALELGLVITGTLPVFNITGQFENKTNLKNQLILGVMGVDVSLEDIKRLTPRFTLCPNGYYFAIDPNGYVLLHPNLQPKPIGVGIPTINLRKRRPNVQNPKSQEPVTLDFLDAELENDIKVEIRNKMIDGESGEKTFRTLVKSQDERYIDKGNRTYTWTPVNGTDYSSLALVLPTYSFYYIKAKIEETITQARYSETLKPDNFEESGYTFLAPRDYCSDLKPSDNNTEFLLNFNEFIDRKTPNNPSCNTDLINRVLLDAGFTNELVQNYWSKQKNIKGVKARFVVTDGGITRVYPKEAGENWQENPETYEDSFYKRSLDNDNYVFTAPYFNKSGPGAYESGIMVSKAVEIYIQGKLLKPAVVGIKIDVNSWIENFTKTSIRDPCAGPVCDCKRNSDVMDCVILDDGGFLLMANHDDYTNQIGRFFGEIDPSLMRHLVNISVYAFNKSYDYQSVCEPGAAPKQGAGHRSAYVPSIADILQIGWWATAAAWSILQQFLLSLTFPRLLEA
Sequence of Calcium Channel (P13806 961-1106 partner limits assumed): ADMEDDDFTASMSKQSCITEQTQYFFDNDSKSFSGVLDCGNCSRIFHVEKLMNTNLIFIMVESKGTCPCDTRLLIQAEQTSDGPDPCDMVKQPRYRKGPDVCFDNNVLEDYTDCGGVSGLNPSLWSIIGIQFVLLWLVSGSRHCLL

| Compound | IC50 (Calcium Channel) | IC50 (femoral artery) | inhibition at 1 µM (cultured cardiac cells) | inhibition at 10 µM (cultured cardiac cells) | Decrease of heart rate (%) ([1]; 30 mg/kg PO) | Antihypertensive action (%) ([1]; 30 mg/kg PO) | inhibition in vivo at 0.3 mg/kg [2] | inhibition in vivo at 1 mg/kg [2] | inhibition in vivo at 0.1 mg/kg ([2]; 0.1 mg/kg iv) | Decrease of heart rate (%) ([1]; 60 mg/kg PO) | Antihypertensive action (%) ([1]; 60 mg/kg PO) |
| --- | --- | --- | --- | --- | --- | --- | --- | --- | --- | --- | --- |
| COc1ccc([C@@H]2Sc3cc(Cl)ccc3N(CCCN3CCN(c4ccccc4OC)CC3)C(=O)[C@@H]2OC(C)=O)cc1 (relative stereo) [Compound I-8, 3-Acetoxy-5-[3-(4-(2-methoxyphenyl)-piperazinyl)propyl]-2,3-dihydro-2-(4-methoxyphenyl)-8-chloro-1,5-benzothiazepin-4(5H)-one] | 280 nM | 60 nM | 17% | 70% | 3.2% | 15% | 29% |  |  |  |  |
| COc1ccc([C@@H]2Sc3cc(C)ccc3N(CCCN3CCN(c4ccccc4OC)CC3)C(=O)[C@@H]2OC(C)=O)cc1 [Compound I-36, (2S-cis)-3-Acetoxy-5-[3-(4-(2methoxyphenyl) - 1-piperazinyl)propyl]-2,3-dihydro-2-(4-methoxyphenyl)-8-methyl-1,5-benzothiazepin-4 (5H)-one] | 140 nM | 20 nM |  |  |  |  |  | 30% |  |  |  |
| COc1ccc([C@@H]2Sc3cc(Cl)ccc3N(CCCN3CCN(c4ccccc4OC)CC3)C(=O)[C@@H]2OC(C)=O)cc1.Cl [Compound I-18, (2S-cis)-3-Acetoxy-5-[3-(4-(2-methoxyphenyl) -1-piperazinyl)propyl]-2,3-dihydro-2(4-methoxyphenyl) -8-chloro-1,5-benzothiazepin-4(5H)-one hydrochloride] | 250 nM | 37 nM | 23.7% | 73.9% | 7.0% | 18% | 42% |  | 30% |  |  |
| COc1ccc([C@@H]2Sc3ccccc3N(CCN(C)C)C(=O)[C@@H]2OC(C)=O)cc1 [Diltiazem, reference compound] |  | 13300 nM | 10% | 29% |  |  |  | 13% |  | 15% | 11% |
| COc1ccc([C@@H]2Sc3cc(Cl)ccc3N(CCCN3CCN(C(c4ccccc4)c4ccc(Cl)cc4)CC3)C(=O)[C@@H]2OC(C)=O)cc1 (stereo partly drawn) [Compound I-22, (2S-cis)-3-Acetoxy-5-[3-(4-(4-chlorobenzhydryl)-1-piperazinyl)propyl]-2,3-dihydro-2-(4-methoxyphenyl)-8-chloro-l,5-benzothiazepin-4(5H)-one] | 340 nM |  | 25.7% | 73.9% | 9.4% | 18% | 45% |  |  |  |  |
| COc1ccc([C@@H]2Sc3cc(OC)ccc3N(CCCN3CCN(c4ccccc4OC)CC3)C(=O)[C@@H]2OC(C)=O)cc1 [Compound I-35, (2S-cis)-3-Acetoxy-5-[3-(4-(2-methoxyphenyl)-1-piperazinyl)propyl]-2,3-dihydro-2-(4-methoxyphenyl)-8-methoxy-l,5-benzothiazepin-4(5H)-one] | 120 nM | 30 nM |  |  |  |  |  | 37% |  |  |  |
| COc1ccc([C@@H]2Sc3cc(Cl)ccc3N(CCCN3CCN(C(c4ccc(F)cc4)c4ccc(F)cc4)CC3)C(=O)[C@@H]2OC(C)=O)cc1 (relative stereo) [Compound I-15, 3-Acetoxy-5-[3-(4-(4,4'-difluorobenzhydryl) -1-piperazinyl)propyl]-2,3-dihydro-2-(4-methoxyphenyl)-8-chloro-1,5-benzothiazepin-4(5H)-one] | 57 nM | 600 nM |  | 76% |  |  |  |  |  | 6.5% | 17% |
